Test system: 521955-158-R6-J3-PDC complex spheroid growth, % test/control
Assay: Anticancer human tumor 521955-158-R6-J3-PDC patient-derived pancreatic carcinoma cell line growth inhibition [Asc]
Conditions: for IC50: curve of first compound; for viability, T/C: stronger effect = lower value; active = viability on the fitted dose curve at most 10% of control; inactive = the rest
In short: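 Tumor cells were grown as complex spheroids with human endothelial cells (HUVEC) and human mesenchymal stem cells as stroma. Agents were tested alone and in combination, in half-log steps down from the clinical Cmax, or from 10 microM where Cmax was unknown.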

[1] = second compound 0.00949 µM, first compound 0.0316 µM
[2] = second compound 0.00949 µM, first compound 0.1 µM
[3] = second compound 0.03 µM, first compound 0.0316 µM
[4] = second compound 0.03 µM, first compound 0.1 µM
[5] = second compound 0.0949 µM, first compound 0.0316 µM
[6] = second compound 0.0949 µM, first compound 0.1 µM
[7] = second compound 0.3 µM, first compound 0.0316 µM
[8] = second compound 0.3 µM, first compound 0.1 µM
[9] = second compound 0.949 µM, first compound 0.0316 µM
[10] = second compound 0.949 µM, first compound 0.1 µM
[11] = second compound 3 µM, first compound 0.0316 µM
[12] = second compound 3 µM, first compound 0.1 µM
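Also: spheroids exposed to compounds for 7 days.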
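For viability, T/C in this document: 100% = DMSO vehicle control wells.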

Cn1ncnc1[C@H]1c2n[nH]c(=O)c3cc(F)cc(c23)N[C@@H]1c1ccc(F)cc1 + CCN1C(C(=O)NC23CCC(C(=O)O)(CC2)CC3)C(c2cccc(Cl)c2F)C2(C(=O)Nc3cc(Cl)ccc32)C12CCCCC2
inactive: viability, T/C (second compound 0.00949 µM, first compound 0.000316 µM) 114% | viability, T/C (second compound 0.00949 µM, first compound 0.001 µM) 102% | viability, T/C (second compound 0.00949 µM, first compound 0.00316 µM) 98.8% | viability, T/C (second compound 0.00949 µM, first compound 0.01 µM) 91.7% | viability, T/C [1] 78.9% | viability, T/C [2] 91.2% | viability, T/C (second compound 0.03 µM, first compound 0.000316 µM) 100% | viability, T/C (second compound 0.03 µM, first compound 0.001 µM) 94.1% | viability, T/C (second compound 0.03 µM, first compound 0.00316 µM) 100% | viability, T/C (second compound 0.03 µM, first compound 0.01 µM) 99.5% | viability, T/C [3] 97.5% | viability, T/C [4] 94.6% | viability, T/C (second compound 0.0949 µM, first compound 0.000316 µM) 95.7% | viability, T/C (second compound 0.0949 µM, first compound 0.001 µM) 94.8% | viability, T/C (second compound 0.0949 µM, first compound 0.00316 µM) 101% | viability, T/C (second compound 0.0949 µM, first compound 0.01 µM) 102% | viability, T/C [5] 94.3% | viability, T/C [6] 98.9% | viability, T/C (second compound 0.3 µM, first compound 0.000316 µM) 97.2% | viability, T/C (second compound 0.3 µM, first compound 0.001 µM) 97.7% | viability, T/C (second compound 0.3 µM, first compound 0.00316 µM) 99.4% | viability, T/C (second compound 0.3 µM, first compound 0.01 µM) 80.5% | viability, T/C [7] 98.3% | viability, T/C [8] 102% | viability, T/C (second compound 0.949 µM, first compound 0.000316 µM) 104% | viability, T/C (second compound 0.949 µM, first compound 0.001 µM) 100% | viability, T/C (second compound 0.949 µM, first compound 0.00316 µM) 114% | viability, T/C (second compound 0.949 µM, first compound 0.01 µM) 87.5% | viability, T/C [9] 96.3% | viability, T/C [10] 99.8% | viability, T/C (second compound 3 µM, first compound 0.000316 µM) 100% | viability, T/C (second compound 3 µM, first compound 0.001 µM) 90.4% | viability, T/C (second compound 3 µM, first compound 0.00316 µM) 108% | viability, T/C (second compound 3 µM, first compound 0.01 µM) 82% | viability, T/C [11] 98.6% | viability, T/C [12] 99%
> 100 nM: IC50 (second compound 0.00949 µM) | IC50 (second compound 0.03 µM) | IC50 (second compound 0.0949 µM) | IC50 (second compound 0.3 µM) | IC50 (second compound 0.949 µM) | IC50 (second compound 3 µM)

C#Cc1c(F)ccc2cc(O)cc(-c3ncc4c(N5CC6CCC(C5)N6)nc(OCC56CCCN5CC(F)C6)nc4c3F)c12 (stereo unspecified) + CCN1C(C(=O)NC23CCC(C(=O)O)(CC2)CC3)C(c2cccc(Cl)c2F)C2(C(=O)Nc3cc(Cl)ccc32)C12CCCCC2
inactive: viability, T/C [1] 76.9% | viability, T/C [2] 60.5% | viability, T/C (second compound 0.00949 µM, first compound 0.316 µM) 50.2% | viability, T/C (second compound 0.00949 µM, first compound 1 µM) 49.1% | viability, T/C (second compound 0.00949 µM, first compound 3.16 µM) 39.3% | viability, T/C (second compound 0.00949 µM, first compound 10 µM) 28.2% | viability, T/C [3] 72.2% | viability, T/C [4] 58% | viability, T/C (second compound 0.03 µM, first compound 0.316 µM) 47.1% | viability, T/C (second compound 0.03 µM, first compound 1 µM) 45.4% | viability, T/C (second compound 0.03 µM, first compound 3.16 µM) 41.4% | viability, T/C (second compound 0.03 µM, first compound 10 µM) 31.7% | viability, T/C [5] 81.6% | viability, T/C [6] 55.8% | viability, T/C (second compound 0.0949 µM, first compound 0.316 µM) 46.5% | viability, T/C (second compound 0.0949 µM, first compound 1 µM) 40.2% | viability, T/C (second compound 0.0949 µM, first compound 3.16 µM) 43.6% | viability, T/C (second compound 0.0949 µM, first compound 10 µM) 30.3% | viability, T/C [7] 72.1% | viability, T/C [8] 65.9% | viability, T/C (second compound 0.3 µM, first compound 0.316 µM) 42.4% | viability, T/C (second compound 0.3 µM, first compound 1 µM) 40.4% | viability, T/C (second compound 0.3 µM, first compound 3.16 µM) 39.2% | viability, T/C (second compound 0.3 µM, first compound 10 µM) 29.3% | viability, T/C [9] 68.3% | viability, T/C [10] 66% | viability, T/C (second compound 0.949 µM, first compound 0.316 µM) 51% | viability, T/C (second compound 0.949 µM, first compound 1 µM) 53% | viability, T/C (second compound 0.949 µM, first compound 3.16 µM) 41.7% | viability, T/C (second compound 0.949 µM, first compound 10 µM) 34.2% | viability, T/C [11] 57.9% | viability, T/C [12] 48.4% | viability, T/C (second compound 3 µM, first compound 0.316 µM) 51% | viability, T/C (second compound 3 µM, first compound 1 µM) 41.3% | viability, T/C (second compound 3 µM, first compound 3.16 µM) 50.4% | viability, T/C (second compound 3 µM, first compound 10 µM) 25.7%
223 nM: IC50 (second compound 0.3 µM)
214 nM: IC50 (second compound 0.0949 µM)
903 nM: IC50 (second compound 0.949 µM)
518 nM: IC50 (second compound 0.00949 µM)
< 31.6 nM: IC50 (second compound 3 µM)
329 nM: IC50 (second compound 0.03 µM)

NC(=O)C(=Cn1cnc(-c2cc(C(F)(F)F)cc(C(F)(F)F)c2)n1)c1cncnc1 + CNC(C)C(=O)NC1CN(S(=O)(=O)c2cccc(S(=O)(=O)N3CCC4CCC(C(=O)NC(c5ccccc5)c5ccccc5)N4C(=O)C(NC(=O)C(C)NC)C3)c2)CCC2CCC(C(=O)NC(c3ccccc3)c3ccccc3)N2C1=O
inactive: viability, T/C (second compound 0.00316 µM, first compound 0.000949 µM) 114% | viability, T/C (second compound 0.00316 µM, first compound 0.003 µM) 122% | viability, T/C (second compound 0.00316 µM, first compound 0.00949 µM) 119% | viability, T/C (second compound 0.00316 µM, first compound 0.03 µM) 104% | viability, T/C (second compound 0.00316 µM, first compound 0.0949 µM) 93.9% | viability, T/C (second compound 0.00316 µM, first compound 0.3 µM) 66.5% | viability, T/C (second compound 0.01 µM, first compound 0.000949 µM) 71% | viability, T/C (second compound 0.01 µM, first compound 0.003 µM) 69.2% | viability, T/C (second compound 0.01 µM, first compound 0.00949 µM) 59.2% | viability, T/C (second compound 0.01 µM, first compound 0.03 µM) 81.7% | viability, T/C (second compound 0.01 µM, first compound 0.0949 µM) 83.7% | viability, T/C (second compound 0.01 µM, first compound 0.3 µM) 75.5% | viability, T/C (second compound 0.0316 µM, first compound 0.000949 µM) 79.5% | viability, T/C (second compound 0.0316 µM, first compound 0.003 µM) 59.5% | viability, T/C (second compound 0.0316 µM, first compound 0.00949 µM) 63.9% | viability, T/C (second compound 0.0316 µM, first compound 0.03 µM) 62.9% | viability, T/C (second compound 0.0316 µM, first compound 0.0949 µM) 79.6% | viability, T/C (second compound 0.0316 µM, first compound 0.3 µM) 66.6% | viability, T/C (second compound 0.1 µM, first compound 0.000949 µM) 65.7% | viability, T/C (second compound 0.1 µM, first compound 0.003 µM) 69% | viability, T/C (second compound 0.1 µM, first compound 0.00949 µM) 65.2% | viability, T/C (second compound 0.1 µM, first compound 0.03 µM) 58.7% | viability, T/C (second compound 0.1 µM, first compound 0.0949 µM) 75.2% | viability, T/C (second compound 0.1 µM, first compound 0.3 µM) 75.1% | viability, T/C (second compound 0.316 µM, first compound 0.000949 µM) 61% | viability, T/C (second compound 0.316 µM, first compound 0.003 µM) 69.9% | viability, T/C (second compound 0.316 µM, first compound 0.00949 µM) 70.3% | viability, T/C (second compound 0.316 µM, first compound 0.03 µM) 71% | viability, T/C (second compound 0.316 µM, first compound 0.0949 µM) 68% | viability, T/C (second compound 0.316 µM, first compound 0.3 µM) 70.2% | viability, T/C (second compound 1 µM, first compound 0.000949 µM) 54.4% | viability, T/C (second compound 1 µM, first compound 0.003 µM) 66.9% | viability, T/C (second compound 1 µM, first compound 0.00949 µM) 70% | viability, T/C (second compound 1 µM, first compound 0.03 µM) 60.6% | viability, T/C (second compound 1 µM, first compound 0.0949 µM) 86.1% | viability, T/C (second compound 1 µM, first compound 0.3 µM) 62%
> 300 nM: IC50 (second compound 0.00316 µM) | IC50 (second compound 0.01 µM) | IC50 (second compound 0.0316 µM) | IC50 (second compound 0.1 µM) | IC50 (second compound 0.316 µM) | IC50 (second compound 1 µM)

Source: PubChem BioAssay AID1963451 (Molecular Pharmacology Branch, DTP, NCI, 2024)
